Measurements published in publication PMC10974995 (Pathogens, 2024).
Values after ≈ are worked out from the molar mass of the structure shown. Read-outs that look alike come from different tables or passages of the source.

How the values were obtained:
[1] = tested on: boar sperm
[2] = tested on: PK-15 (porcine kidney epithelial cells) and/or FFL (feline fetus lung cells)
[3] = tested on: differentiated PK-15 cells
[4] = tested on: boar sperm; assay: cells
[5] = tested on: PK-15 (porcine kidney epithelial cells) and/or FFL (feline fetus lung cells); assay: cells; details: Sus scrofa
[6] = tested on: differentiated PK-15 cells; assay: cells; details: Sus scrofa, PK-15, read-out: Mitochondrial Toxicity 1d (EC50, acceleration of glycolysis and depolarization of mitochondria)
[7] = tested on: Fish; details: cited from earlier work
[8] = tested on: Rat; details: po; cited from earlier work
[9] = tested on: boar sperm and PK-15 cells
[10] = tested on: boar sperm; details: cited from earlier work
[11] = tested on: rodents; details: in vivo; cited from earlier work
[12] = 72 h, read-out: EC50 Ex Vivo BSMI 1–3d
[13] = PK-15, 48 h, read-out: EC50 In Vitro ICP 2d

Compound | Ex Vivo BSMI 1–3d, toxic (+) / nontoxic (−), xenobiotic chemicals ([1]; pig (boar)) | In Vitro ICP 2d, toxic (+) / nontoxic (−), xenobiotic chemicals [2] | Mitochondrial toxicity after testing with somatic cells [3] | EC50 [4, 12] [µg/mL] | EC50 [5, 13] [µg/mL] | EC50 [6] [µg/mL] | In Vivo (toxicity to experimental animals), xenobiotic chemicals [7] | Toxicity In Vivo LD50 Fish [7] [mg/L] | Toxicity In Vivo LD50 Rat p.o. [8] [mg/kg] | In Vitro ICP 2d, toxic (+) / nontoxic (−), microbial metabolites [2] | Toxicity profile of pure toxins and chemicals in the BSMI and ICP assays [9] | In Vivo (toxicity to experimental animals), mycotoxins and fungal metabolites [8] | other results
Oc1cc(Cl)ccc1Oc1ccc(Cl)cc1Cl [Triclosan, Triclorooxy-phenylether] | (+) 1 (key: (+): For the xenobiotic chemicals, EC50 values < 10 µg mL^−1 and <20 µg mL^−1 were considered as toxic in the BSMI assay and in the ICP assay, respectively; nontoxic as (−)) | 20 (−) | Mitochondrial toxicity was recorded | 1 (≈ 3.45 µM) | 20 (≈ 69.1 µM) | 5 (≈ 17.3 µM) | + (key: LD50 Fish Inhaled <10 μg mL ^–1 = Toxic in vivo Marked as +.) | 0.5 | 3700 | – | – | – | Sperm motility relative to the negative control [1]: < 20%; EC50 ([4]; read-out: EC50 Ex Vivo BSMI, positive controls, mean of 10 or 11 measurements): 1 µg/mL (≈ 3.45 µM); EC50 ([5]; PK-15, read-out: EC50 In Vitro ICP, positive controls, mean of 10 or 11 measurements): 13 µg/mL (≈ 44.9 µM)
Alamethicin | – | – | – | – | – | – | – | – | 80 | (+) 6 (key: (+): For the microbial metabolites, EC50 < 5 µg mL^−1 and <10 µg mL^−1 were considered as toxic in the BSMI and ICP assays, respectively; nontoxic as (−)) | toxic in both the BSMI and ICP tests | + (key: LD50 rat p.o. <1000 mg kg ^–1 Classified as Toxic in vivo +.) | EC50 Ex Vivo BSMI 1–3d [1]: (+) 0.5 μg mL^–1; Ex Vivo BSMI 1–3d, toxic (+) / nontoxic (−), microbial metabolites [1]: (+) 0.5 (key: (+): For the microbial metabolites, EC50 < 5 µg mL^−1 and <10 µg mL^−1 were considered as toxic in the BSMI and ICP assays, respectively; nontoxic as (−)); EC50 In Vitro ICP 2d [2]: (+) 6 μg mL^–1
C[C@@H]1Cc2c(Cl)cc(C(=O)N[C@@H](Cc3ccccc3)C(=O)O)c(O)c2C(=O)O1 [Ochratoxin A] | – | – | – | > 50 | > 50 | – | – | – | 20 | (−) >50 | not detected in our assays | + (key: LD50 rat p.o. <1000 mg kg ^–1 Classified as Toxic in vivo +.) | Ex Vivo BSMI 1–3d, toxic (+) / nontoxic (−), microbial metabolites ([1]; pig (boar)): (−) >50
CC(C)C[C@H]1OC(=O)[C@H](C(C)C)NC(=O)[C@H](C(C)C)OC(=O)[C@@H](C)NC(=O)[C@@H](CC(C)C)OC(=O)[C@H](C(C)C)NC(=O)[C@H](C(C)C)OC(=O)[C@@H](C)NC(=O)[C@@H](CC(C)C)OC(=O)[C@H](C(C)C)NC(=O)[C@H](C(C)C)OC(=O)[C@@H](C)NC1=O [Cereulide] | – | – | – | – | – | – | – | – | – | – | – | – | Toxicity in sperm motility tests [10]: toxic; Toxicity to rodents [11]: non-toxic
CCCCCCCCCC[N+](C)(C)CCCCCCCCCC [DDAC, Didecyl- dimethyl- ammonium- chloride] | (+) 1 (key: (+): For the xenobiotic chemicals, EC50 values < 10 µg mL^−1 and <20 µg mL^−1 were considered as toxic in the BSMI assay and in the ICP assay, respectively; nontoxic as (−)) | (+) 0.5 (key: (+): For the xenobiotic chemicals, EC50 values < 10 µg mL^−1 and <20 µg mL^−1 were considered as toxic in the BSMI assay and in the ICP assay, respectively; nontoxic as (−)) | Mitochondrial toxicity was recorded | 1 | 0.5 | 1 | + (key: LD50 Fish Inhaled <10 μg mL ^–1 = Toxic in vivo Marked as +.) | 0.5 | 238 | – | highly toxic in both assays | – | –
